Measured values published in article PMC3961306, “Comparison of the Cancer Gene Targeting and Biochemical Selectivities of All Targeted Kinase Inhibitors Approved for Clinical Use” (PLoS ONE, 2014).
Read-outs that look alike come from different tables or passages of the source.

Tests used:
Assay in all cases: Kinase profiling in a biochemical assay panel (mobility shift assays and ELISA), %-inhibition at 1 μM; selectivity entropy
[1] = biological target: panel of more than 300 wild-type and mutant kinases (313 kinase panel) (Homo sapiens, UniProt P06239)
[2] = biological target: panel of more than 300 wild-type and mutant kinases (313 kinase panel) (Homo sapiens, UniProt P22607); conditions: kinase FGFR3; compound at 1 μM
[3] = biological target: panel of more than 300 wild-type and mutant kinases (313 kinase panel) (Homo sapiens, UniProt P36894)
[4] = biological target: panel of more than 300 wild-type and mutant kinases (313 kinase panel) (Homo sapiens, UniProt Q02779); conditions: kinase MLK2; 1 μM
[5] = biological target: panel of more than 300 wild-type and mutant kinases (313 kinase panel) (Homo sapiens, UniProt Q13177)
[6] = biological target: T1, panel of more than 300 wild-type and mutant kinases (313 kinase panel) (Homo sapiens, UniProt Q92630)
T1 sequence (Q92630 1-601): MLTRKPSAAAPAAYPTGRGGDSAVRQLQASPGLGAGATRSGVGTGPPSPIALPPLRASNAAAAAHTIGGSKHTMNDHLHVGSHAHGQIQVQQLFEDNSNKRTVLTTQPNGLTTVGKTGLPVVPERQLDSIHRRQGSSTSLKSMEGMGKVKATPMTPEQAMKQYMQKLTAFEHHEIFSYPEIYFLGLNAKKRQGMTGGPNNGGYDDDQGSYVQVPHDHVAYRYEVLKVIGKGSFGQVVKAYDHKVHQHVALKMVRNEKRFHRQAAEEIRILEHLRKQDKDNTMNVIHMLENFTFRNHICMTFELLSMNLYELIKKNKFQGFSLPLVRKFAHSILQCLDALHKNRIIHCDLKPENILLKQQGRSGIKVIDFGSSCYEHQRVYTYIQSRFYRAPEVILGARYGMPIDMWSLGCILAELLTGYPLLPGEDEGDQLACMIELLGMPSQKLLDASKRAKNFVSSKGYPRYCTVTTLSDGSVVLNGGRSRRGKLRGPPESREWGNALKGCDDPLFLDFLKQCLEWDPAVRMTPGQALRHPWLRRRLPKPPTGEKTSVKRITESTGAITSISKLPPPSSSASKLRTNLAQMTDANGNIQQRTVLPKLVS

[7] = biological target: panel of more than 300 wild-type and mutant kinases (313 kinase panel) (Homo sapiens, UniProt Q96GD4)
[8] = biological target: panel of more than 300 wild-type and mutant kinases (313 kinase panel) (Homo sapiens, UniProt Q9BUB5)
[9] = biological target: panel of more than 300 wild-type and mutant kinases (313 kinase panel) (Homo sapiens, UniProt Q9H2G2)
[10] = biological target: T2, panel of more than 300 wild-type and mutant kinases (313 kinase panel) (Homo sapiens, UniProt Q9UHD2)
T2 sequence (Q9UHD2 1-729): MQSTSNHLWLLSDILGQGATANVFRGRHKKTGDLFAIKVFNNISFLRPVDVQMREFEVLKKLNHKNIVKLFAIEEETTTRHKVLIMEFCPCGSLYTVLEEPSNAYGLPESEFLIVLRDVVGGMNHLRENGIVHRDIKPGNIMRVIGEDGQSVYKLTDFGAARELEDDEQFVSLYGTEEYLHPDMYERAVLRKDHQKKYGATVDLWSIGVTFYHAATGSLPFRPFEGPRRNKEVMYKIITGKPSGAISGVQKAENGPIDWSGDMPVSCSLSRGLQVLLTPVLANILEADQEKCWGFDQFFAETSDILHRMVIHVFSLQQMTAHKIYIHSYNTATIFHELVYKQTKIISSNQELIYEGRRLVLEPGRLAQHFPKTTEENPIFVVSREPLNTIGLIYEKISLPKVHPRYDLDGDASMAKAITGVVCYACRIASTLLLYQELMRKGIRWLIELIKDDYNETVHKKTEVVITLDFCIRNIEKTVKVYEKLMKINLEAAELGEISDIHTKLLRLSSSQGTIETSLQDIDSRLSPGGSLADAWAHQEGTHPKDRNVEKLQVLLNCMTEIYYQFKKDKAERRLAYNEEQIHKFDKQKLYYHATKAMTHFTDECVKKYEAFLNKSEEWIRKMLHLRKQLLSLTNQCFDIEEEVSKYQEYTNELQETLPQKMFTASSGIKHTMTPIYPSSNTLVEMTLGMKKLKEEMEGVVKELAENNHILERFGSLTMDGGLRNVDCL

[11] = biological target: T3, panel of more than 300 wild-type and mutant kinases (313 kinase panel) (Homo sapiens, UniProt Q9UQB9)
T3 sequence (Q9UQB9 1-309): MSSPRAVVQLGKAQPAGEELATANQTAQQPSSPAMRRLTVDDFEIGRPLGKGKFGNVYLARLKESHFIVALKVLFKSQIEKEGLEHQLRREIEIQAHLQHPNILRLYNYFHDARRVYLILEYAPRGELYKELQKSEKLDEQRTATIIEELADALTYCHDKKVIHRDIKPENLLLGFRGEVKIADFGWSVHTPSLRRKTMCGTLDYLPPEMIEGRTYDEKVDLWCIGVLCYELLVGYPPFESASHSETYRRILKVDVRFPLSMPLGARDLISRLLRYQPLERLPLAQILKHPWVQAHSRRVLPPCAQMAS

Chain of panel of more than 300 wild-type and mutant kinases (313 kinase panel) (Homo sapiens, UniProt Q9BUB5) (Q9BUB5 whole entry, change not shown): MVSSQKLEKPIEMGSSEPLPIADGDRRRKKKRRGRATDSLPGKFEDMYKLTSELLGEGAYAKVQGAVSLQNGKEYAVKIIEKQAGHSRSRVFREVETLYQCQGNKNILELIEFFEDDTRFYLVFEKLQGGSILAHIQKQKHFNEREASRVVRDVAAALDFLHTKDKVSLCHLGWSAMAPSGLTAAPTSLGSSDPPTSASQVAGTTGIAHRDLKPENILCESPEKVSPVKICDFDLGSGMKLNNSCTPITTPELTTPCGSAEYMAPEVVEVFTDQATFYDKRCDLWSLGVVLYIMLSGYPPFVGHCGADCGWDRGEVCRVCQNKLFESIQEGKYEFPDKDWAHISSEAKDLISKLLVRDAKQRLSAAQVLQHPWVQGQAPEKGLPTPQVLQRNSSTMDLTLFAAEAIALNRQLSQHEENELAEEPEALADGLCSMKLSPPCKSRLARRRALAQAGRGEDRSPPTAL
Chain of panel of more than 300 wild-type and mutant kinases (313 kinase panel) (Homo sapiens, UniProt Q02779) (Q02779 whole entry, change not shown): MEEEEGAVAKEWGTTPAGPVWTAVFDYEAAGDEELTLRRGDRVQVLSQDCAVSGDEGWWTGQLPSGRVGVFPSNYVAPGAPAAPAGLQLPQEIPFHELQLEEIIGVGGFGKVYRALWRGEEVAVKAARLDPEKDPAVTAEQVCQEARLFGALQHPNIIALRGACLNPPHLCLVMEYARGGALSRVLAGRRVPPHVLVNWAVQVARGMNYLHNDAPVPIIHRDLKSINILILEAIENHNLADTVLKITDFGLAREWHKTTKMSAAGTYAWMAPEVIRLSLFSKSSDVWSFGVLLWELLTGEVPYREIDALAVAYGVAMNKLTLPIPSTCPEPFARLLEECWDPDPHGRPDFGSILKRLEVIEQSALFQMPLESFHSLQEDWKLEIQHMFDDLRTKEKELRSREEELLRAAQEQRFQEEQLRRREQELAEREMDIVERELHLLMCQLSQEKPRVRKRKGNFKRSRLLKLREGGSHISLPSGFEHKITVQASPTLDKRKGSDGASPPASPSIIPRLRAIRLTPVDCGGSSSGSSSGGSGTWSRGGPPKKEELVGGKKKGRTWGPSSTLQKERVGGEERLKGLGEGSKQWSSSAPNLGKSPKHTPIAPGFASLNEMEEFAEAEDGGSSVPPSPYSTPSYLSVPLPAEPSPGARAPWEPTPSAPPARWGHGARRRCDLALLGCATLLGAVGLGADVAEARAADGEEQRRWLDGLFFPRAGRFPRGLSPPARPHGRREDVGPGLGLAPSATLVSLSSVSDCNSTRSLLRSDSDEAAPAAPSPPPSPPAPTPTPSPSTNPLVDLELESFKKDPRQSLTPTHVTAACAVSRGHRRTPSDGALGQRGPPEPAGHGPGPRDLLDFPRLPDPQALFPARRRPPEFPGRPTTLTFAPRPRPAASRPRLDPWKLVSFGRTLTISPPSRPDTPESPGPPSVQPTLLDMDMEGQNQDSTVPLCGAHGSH
Chain of panel of more than 300 wild-type and mutant kinases (313 kinase panel) (Homo sapiens, UniProt P22607) (P22607 23-806, change not shown): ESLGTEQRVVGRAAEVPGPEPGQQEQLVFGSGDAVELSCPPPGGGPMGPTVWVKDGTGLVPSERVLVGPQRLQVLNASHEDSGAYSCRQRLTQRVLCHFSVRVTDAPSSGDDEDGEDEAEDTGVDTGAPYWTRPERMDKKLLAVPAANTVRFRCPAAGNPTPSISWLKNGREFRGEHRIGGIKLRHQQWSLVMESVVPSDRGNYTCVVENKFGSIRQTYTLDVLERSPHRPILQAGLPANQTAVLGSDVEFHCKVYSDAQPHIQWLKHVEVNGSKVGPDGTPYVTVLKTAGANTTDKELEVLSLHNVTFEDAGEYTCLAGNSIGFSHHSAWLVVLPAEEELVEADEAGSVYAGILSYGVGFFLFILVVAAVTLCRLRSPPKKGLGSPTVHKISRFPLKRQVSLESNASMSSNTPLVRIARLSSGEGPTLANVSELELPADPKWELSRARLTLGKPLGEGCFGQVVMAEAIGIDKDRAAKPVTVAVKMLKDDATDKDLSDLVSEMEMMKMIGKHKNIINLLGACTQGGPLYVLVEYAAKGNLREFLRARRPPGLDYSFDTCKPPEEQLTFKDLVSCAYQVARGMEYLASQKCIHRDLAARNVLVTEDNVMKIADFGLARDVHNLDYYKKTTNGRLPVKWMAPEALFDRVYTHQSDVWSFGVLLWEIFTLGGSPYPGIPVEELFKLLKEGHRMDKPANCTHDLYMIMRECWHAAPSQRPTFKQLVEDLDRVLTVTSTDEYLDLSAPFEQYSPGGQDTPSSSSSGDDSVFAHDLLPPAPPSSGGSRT
Chain of panel of more than 300 wild-type and mutant kinases (313 kinase panel) (Homo sapiens, UniProt Q96GD4) (Q96GD4 whole entry, change not shown): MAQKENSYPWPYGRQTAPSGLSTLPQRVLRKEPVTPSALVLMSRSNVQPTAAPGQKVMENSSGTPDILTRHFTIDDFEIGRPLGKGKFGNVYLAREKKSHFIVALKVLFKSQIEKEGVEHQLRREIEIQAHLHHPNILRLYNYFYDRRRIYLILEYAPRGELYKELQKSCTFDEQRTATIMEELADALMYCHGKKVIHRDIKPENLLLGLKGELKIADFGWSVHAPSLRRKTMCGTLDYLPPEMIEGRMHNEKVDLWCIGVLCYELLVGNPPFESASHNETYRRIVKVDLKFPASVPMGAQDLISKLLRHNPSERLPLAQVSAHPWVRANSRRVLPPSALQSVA
Chain of panel of more than 300 wild-type and mutant kinases (313 kinase panel) (Homo sapiens, UniProt P06239) (P06239 whole entry, change not shown): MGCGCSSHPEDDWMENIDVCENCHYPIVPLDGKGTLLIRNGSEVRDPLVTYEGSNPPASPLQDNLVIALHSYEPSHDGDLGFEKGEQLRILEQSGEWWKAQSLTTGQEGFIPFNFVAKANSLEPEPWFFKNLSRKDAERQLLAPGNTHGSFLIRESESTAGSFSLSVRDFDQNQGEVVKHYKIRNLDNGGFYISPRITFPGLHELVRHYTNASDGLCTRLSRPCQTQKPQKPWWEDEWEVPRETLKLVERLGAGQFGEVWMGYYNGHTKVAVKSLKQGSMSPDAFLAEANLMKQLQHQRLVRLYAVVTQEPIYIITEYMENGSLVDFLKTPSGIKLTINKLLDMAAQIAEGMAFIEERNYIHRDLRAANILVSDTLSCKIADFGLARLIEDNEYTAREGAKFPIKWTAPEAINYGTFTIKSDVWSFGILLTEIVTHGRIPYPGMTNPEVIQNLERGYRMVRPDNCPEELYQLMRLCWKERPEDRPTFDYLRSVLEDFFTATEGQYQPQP

SMILES | %-inhibition of LCK ([1]; kinase LCK, compound at 1 μM) [%] | %-inhibition of FGFR3 [2] [%] | %-inhibition, BMPR1A [3] [%] | %-inhibition of MLK2 [4] [%] | %-inhibition of PAK2 ([5]; kinase PAK2, 1 μM) [%] | %-inhibition of DYRK2 ([6]; 1 µM) [%] | %-inhibition, AurB ([7]; 1 µM) [%] | %-inhibition of MNK1 ([8]; kinase MNK1, 1 μM) [%] | %-inhibition of SLK ([9]; 1 µM) [%] | %-inhibition of TBK1 ([10]; kinase TBK1, 1 μM) [%] | %-inhibition, AurC ([11]; 1 µM) [%] | %-inhibition, BMPR1A ([3]; kinase BMPR1A, 1 μM compound) [%] | %-inhibition of DYRK2 ([6]; kinase DYRK2, compound at 1 μM) [%] | %-inhibition, AurB ([7]; kinase AurB, 1 μM compound) [%] | %-inhibition of SLK ([9]; kinase SLK, 1 μM) [%] | %-inhibition, AurC ([11]; kinase AurC, 1 μM compound) [%] | %-inhibition of LCK ([1]; 1 µM) [%] | %-inhibition of PAK2 ([5]; 1 µM) [%] | %-inhibition of MNK1 ([8]; 1 µM) [%] | %-inhibition of TBK1 ([10]; 1 µM) [%]
CS(=O)(=O)CCNCc1ccc(-c2ccc3ncnc(Nc4ccc(OCc5cccc(F)c5)c(Cl)c4)c3c2)o1 [lapatinib] | 12 | 0.327 | 7.37 | 1.78 | 7 | 10 | 9 | 11 | 10 | -14 | 3.4 | – | – | – | – | – | – | – | – | –
CO[C@H]1C[C@@H]2CC[C@@H](C)[C@@](O)(O2)C(=O)C(=O)N2CCCC[C@H]2C(=O)O[C@H]([C@H](C)C[C@@H]2CC[C@@H](OCCO)[C@H](OC)C2)CC(=O)[C@H](C)/C=C(\C)[C@@H](O)[C@@H](OC)C(=O)[C@H](C)C[C@H](C)/C=C/C=C/C=C/1C [everolimus] | -2.67 | -9 | – | 4 | -8 | – | – | -0.485 | – | -5 | – | -3.21 | -10 | -1.39 | -2.67 | -6.41 | – | – | – | –
CNC(=O)c1cc(Oc2ccc(NC(=O)Nc3ccc(Cl)c(C(F)(F)F)c3)c(F)c2)ccn1 [regorafenib] | 85 | 97 | – | 0.795 | -1.3 | – | – | 7 | – | -2.13 | – | -4.65 | 2 | 20 | 29 | 22 | – | – | – | –
O=S(=O)(c1cccc2cnccc12)N1CCCNCC1 [fasudil] | -7.52 | -2 | – | -10 | -16 | – | – | 15 | – | -5 | – | -10 | -1.3 | 1 | 4.5 | -0.164 | – | – | – | –
Cc1cn(-c2cc(NC(=O)c3ccc(C)c(Nc4nccc(-c5cccnc5)n4)c3)cc(C(F)(F)F)c2)cn1 [nilotinib] | – | -11 | – | -1.7 | – | – | – | – | – | – | – | -22 | 28 | -11 | -41 | 5 | 90 | -40 | -1.26 | 6
COc1cc2nccc(Oc3ccc(NC(=O)C4(C(=O)Nc5ccc(F)cc5)CC4)cc3)c2cc1OC [cabozantinib] | 98 | 8 | – | 6.67 | -5.44 | – | – | 11 | – | -0.506 | – | 2.27 | 17 | 89 | 52 | 86 | – | – | – | –
